Experimental data as given in ChEMBL document CHEMBL1201862, “PubChem BioAssay data set” (2004).
One block for each compound: values may come before it. Active and inactive are the calls of the source.

What was measured:
Wee1-like protein kinase = Wee1-like protein kinase (Homo sapiens, UniProt P30291); assay: HeLa cell cycle G2/M accumulation – FACS, mechanism study for Wee1 degradation inhibitor project, late-stage follow-up, panel member Wee1 Degradation (AID 2088)
[1] = target: G2/mitotic-specific cyclin-B1 (Homo sapiens, UniProt P14635); assay: HeLa cell cycle G2/M accumulation – FACS, mechanism study for Wee1 degradation inhibitor project, late-stage follow-up, panel member Cyclin B Degradation (AID 2088)
G2/mitotic-specific cyclin-B1, sequence (P14635 whole entry): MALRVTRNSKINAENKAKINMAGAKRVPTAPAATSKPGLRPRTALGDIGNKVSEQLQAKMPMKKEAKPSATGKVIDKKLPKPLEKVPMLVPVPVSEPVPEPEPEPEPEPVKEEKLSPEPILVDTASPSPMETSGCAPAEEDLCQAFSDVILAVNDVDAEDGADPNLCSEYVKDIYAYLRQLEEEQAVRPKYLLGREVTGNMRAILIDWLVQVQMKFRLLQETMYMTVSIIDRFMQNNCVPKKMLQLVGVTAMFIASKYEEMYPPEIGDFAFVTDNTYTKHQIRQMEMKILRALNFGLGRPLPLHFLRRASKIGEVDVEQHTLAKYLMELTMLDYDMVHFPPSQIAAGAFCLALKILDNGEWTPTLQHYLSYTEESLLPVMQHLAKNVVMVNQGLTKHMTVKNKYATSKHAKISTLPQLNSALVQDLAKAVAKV

X-box-binding protein 1 = X-box-binding protein 1 (Homo sapiens, UniProt P17861); format: functional, Cricetulus griseus;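 note: confirmatory dose-response counter-screen serving a CHOP assay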
X-box-binding protein 1, sequence (P17861 whole entry): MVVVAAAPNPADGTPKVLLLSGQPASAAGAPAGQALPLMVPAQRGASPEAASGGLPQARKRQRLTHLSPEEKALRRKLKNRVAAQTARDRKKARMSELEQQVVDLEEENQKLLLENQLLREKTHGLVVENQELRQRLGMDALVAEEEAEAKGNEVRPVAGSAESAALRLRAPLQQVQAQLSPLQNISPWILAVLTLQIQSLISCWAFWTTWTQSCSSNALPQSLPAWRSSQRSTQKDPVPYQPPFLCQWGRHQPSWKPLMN

[2] = target: T1, Voltage-gated N-type calcium channel alpha-1B subunit/Amyloid beta A4 precursor protein-binding family A member 1 (Homo sapiens, UniProt Q00975+Q02410); assay: disruptors of Mint-PDZ/N-type channel peptide interaction – biochemical, HTRF, set 2, SAR follow-up (AID 434980); format: functional
T1 sequence (Q00975 whole entry): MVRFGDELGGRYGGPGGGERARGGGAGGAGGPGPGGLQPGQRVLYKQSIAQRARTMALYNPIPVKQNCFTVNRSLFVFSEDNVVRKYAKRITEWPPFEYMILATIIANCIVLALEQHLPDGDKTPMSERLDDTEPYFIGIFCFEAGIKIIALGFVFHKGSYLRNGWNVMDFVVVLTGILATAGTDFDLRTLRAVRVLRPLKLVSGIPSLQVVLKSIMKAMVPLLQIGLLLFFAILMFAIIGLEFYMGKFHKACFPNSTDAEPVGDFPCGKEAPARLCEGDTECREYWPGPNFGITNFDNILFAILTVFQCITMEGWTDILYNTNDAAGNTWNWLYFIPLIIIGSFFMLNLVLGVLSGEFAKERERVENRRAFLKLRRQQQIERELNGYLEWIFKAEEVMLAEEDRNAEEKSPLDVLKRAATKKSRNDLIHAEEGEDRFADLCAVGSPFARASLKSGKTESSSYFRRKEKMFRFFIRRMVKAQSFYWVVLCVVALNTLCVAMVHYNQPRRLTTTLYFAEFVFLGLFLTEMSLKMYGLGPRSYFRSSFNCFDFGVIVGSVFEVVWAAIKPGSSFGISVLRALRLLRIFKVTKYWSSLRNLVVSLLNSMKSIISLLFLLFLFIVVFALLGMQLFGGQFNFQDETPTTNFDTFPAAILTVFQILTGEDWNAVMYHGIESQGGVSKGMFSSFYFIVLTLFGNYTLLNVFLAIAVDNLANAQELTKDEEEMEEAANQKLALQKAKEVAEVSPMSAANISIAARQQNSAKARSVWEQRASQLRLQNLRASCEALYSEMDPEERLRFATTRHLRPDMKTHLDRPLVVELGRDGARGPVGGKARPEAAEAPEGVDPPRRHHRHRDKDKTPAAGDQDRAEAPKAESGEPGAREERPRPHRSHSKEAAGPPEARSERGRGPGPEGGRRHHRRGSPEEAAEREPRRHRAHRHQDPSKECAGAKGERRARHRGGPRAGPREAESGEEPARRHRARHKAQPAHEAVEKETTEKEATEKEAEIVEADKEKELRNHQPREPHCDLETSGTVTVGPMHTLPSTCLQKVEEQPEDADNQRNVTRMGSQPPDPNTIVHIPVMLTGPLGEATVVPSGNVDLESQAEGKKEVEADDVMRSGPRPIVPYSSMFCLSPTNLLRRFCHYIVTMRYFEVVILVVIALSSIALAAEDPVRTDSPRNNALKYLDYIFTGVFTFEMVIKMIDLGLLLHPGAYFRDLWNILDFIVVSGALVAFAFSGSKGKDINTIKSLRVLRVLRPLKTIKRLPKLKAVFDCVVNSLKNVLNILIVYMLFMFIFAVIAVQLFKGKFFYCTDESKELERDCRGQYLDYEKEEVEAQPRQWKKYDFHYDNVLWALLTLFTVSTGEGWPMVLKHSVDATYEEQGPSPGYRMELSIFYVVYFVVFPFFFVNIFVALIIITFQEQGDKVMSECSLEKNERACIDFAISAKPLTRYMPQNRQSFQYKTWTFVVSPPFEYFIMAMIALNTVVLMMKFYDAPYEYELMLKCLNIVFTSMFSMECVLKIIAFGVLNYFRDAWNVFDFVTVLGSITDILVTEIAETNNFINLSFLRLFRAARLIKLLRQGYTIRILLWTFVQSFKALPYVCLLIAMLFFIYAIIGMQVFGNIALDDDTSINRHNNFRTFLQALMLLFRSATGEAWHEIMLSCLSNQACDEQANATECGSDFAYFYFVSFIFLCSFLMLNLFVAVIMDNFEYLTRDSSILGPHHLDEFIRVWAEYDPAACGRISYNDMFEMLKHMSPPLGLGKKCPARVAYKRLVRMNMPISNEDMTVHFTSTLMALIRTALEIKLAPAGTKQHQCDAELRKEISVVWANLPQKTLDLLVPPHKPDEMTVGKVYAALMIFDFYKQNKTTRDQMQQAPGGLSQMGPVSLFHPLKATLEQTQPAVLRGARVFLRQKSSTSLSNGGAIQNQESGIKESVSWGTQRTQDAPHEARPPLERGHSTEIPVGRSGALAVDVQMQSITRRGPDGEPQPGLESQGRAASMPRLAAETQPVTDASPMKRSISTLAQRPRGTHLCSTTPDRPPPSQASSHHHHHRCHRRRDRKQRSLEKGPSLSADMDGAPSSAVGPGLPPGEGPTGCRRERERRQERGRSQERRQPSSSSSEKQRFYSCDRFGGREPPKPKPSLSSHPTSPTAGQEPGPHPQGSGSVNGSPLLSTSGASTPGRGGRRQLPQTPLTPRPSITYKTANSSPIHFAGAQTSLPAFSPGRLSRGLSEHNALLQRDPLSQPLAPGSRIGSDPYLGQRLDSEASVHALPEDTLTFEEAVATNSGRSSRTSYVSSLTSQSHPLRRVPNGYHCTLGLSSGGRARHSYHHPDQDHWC
T1 sequence (Q02410 whole entry): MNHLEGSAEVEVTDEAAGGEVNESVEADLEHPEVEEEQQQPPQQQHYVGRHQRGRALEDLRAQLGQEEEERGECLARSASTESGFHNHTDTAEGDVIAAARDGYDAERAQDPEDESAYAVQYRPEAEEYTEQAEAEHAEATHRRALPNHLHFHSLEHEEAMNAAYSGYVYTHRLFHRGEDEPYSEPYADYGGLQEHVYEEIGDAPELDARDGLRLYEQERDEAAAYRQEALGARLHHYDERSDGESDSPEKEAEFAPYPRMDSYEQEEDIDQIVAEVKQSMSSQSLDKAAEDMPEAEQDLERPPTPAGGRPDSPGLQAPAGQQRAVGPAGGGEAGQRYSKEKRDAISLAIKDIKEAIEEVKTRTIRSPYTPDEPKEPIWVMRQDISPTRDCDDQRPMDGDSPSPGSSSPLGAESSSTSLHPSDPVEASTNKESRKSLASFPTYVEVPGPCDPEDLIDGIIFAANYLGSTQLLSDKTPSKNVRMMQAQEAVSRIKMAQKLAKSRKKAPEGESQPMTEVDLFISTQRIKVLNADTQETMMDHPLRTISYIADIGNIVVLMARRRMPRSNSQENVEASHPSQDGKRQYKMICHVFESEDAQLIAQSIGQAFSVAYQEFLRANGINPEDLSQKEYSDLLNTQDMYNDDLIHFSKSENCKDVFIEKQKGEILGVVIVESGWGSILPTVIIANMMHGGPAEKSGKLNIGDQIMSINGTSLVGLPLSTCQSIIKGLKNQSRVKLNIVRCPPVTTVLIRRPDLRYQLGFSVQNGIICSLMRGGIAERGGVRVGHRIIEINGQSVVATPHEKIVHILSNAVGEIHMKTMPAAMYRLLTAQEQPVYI

[3] = target: T1, Voltage-gated N-type calcium channel alpha-1B subunit/Amyloid beta A4 precursor protein-binding family A member 1; assay: disruptors of Mint-PDZ/N-type channel peptide interaction – biochemical, HTRF, SAR follow-up (AID 2489); format: functional
[4] = target: Scavenger receptor class B member 1 (Mus musculus, UniProt Q61009); assay: mouse SR-BI DiI-HDL uptake blockers – ldlA[mSR-BI] cells, fluorescence, cherry pick, dose response (AID 493194); format: functional, cell-based;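 note: cellular uptake of fluorescent DiI-labeled HDL measured as cell fluorescence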
Scavenger receptor class B member 1, sequence (Q61009 whole entry): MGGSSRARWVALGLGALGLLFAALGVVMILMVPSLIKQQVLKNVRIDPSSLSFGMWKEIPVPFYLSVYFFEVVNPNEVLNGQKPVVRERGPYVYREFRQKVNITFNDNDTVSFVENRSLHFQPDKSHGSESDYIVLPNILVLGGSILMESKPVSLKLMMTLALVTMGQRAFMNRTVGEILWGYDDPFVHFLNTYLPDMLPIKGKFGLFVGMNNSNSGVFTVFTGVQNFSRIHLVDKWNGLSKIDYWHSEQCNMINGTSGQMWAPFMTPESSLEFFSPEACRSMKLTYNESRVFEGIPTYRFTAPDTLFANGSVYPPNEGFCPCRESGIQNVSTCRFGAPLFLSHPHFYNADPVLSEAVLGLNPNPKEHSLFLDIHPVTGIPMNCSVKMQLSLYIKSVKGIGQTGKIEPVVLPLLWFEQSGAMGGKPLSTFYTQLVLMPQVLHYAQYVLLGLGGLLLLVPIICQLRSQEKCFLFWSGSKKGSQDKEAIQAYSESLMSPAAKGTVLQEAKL

Wee1-like protein kinase, sequence (P30291 whole entry): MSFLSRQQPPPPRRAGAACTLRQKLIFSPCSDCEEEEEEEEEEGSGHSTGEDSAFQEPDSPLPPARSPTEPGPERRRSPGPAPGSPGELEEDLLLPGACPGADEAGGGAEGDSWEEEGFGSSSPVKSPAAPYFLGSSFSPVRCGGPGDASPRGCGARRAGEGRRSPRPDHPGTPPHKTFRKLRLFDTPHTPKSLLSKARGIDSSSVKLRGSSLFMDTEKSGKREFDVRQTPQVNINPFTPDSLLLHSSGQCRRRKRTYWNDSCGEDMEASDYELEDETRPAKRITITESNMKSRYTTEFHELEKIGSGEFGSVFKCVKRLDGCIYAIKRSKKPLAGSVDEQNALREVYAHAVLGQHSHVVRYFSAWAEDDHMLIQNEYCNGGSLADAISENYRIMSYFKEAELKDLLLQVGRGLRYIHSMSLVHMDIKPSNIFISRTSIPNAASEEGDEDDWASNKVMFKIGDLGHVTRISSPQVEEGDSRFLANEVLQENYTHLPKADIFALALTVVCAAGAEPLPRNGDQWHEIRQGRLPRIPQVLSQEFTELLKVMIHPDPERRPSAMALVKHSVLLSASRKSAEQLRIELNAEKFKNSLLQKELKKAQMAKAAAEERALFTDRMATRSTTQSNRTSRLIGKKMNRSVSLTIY

- EC50 (Wee1-like protein kinase): > 49.7 µM (inactive)
- EC50 [1]: > 49.7 µM (inactive)
Structure (SMILES): Cn1c(=O)cc(OCCCC(=O)Nc2cccc(C(F)(F)F)c2)c2ccccc21

- Absolute IC50 (XBP1) (X-box-binding protein 1): 10 µM
Structure (SMILES): Cc1nn(-c2ccc(C(F)(F)F)cn2)c(C)c1Oc1ccccc1O

- IC50 [2]: > 56.8 µM (inactive)
- IC50 [3]: > 56.8 µM (inactive)
Structure (SMILES): O=C(NCCc1ccccc1)c1cc(-c2ccco2)nc2ccccc12

Structure (SMILES): COC(=O)c1cn(C(=O)c2cccc3ccccc23)c2ccccc12
- AC50 [4]: 25.1 µM (active)
